Assay results published in US5939437A, “CCK and gastrin receptor ligands” (James Black Foundation Limited, priority 1994, dated 1999).

Assays:
CCKB = biological target: T1, CCKB (Mus musculus, UniProt P56481); test: radioligand binding assay at the CCKB (CCK8 [sic]) receptor in mouse cortical membranes; conditions: [125I]-CCK8S 200 pM, 150 min at 21±3° C.; for Ki: read-out: CCKB pKi (converted)
T1 construct: The cortex was dissected, weighed and homogenised in 40 ml ice-cold buffer; from tissue; host or cells: cerebral cortex membranes of male CD1 mice (Charles River)
T1 sequence (P56481 1-453): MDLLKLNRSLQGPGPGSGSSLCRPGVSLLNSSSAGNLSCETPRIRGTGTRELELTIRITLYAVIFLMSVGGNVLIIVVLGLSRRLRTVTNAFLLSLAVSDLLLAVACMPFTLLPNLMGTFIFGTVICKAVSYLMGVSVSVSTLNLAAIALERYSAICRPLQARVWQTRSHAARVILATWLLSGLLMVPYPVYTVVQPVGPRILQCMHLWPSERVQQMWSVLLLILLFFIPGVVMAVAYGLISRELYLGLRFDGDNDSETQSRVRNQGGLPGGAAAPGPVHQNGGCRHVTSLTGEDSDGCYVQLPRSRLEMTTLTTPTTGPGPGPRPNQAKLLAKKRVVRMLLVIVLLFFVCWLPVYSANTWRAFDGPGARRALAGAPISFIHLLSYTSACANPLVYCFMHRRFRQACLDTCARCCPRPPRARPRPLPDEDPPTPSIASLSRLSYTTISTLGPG
Experimental: The compounds of the examples were tested for binding at the CCK8 receptor in mouse cortical membranes by means of a radioligand binding assay. The procedure was as follows: The whole brains from male mice (CD1 22-25 g; Charles River) were removed and placed in ice-cold buffer (pH7.2@21±3° C.) of the following composition (mM); 10 HEPES, 130 NaCl, 4.7 KCl, 5 MgCl2, 1 EDTA and containing 0.25 g.1^-1 bacitracin. The cortex was dissected, weighed and homogenised in 40 ml ice-cold buffer using a Teflon-in-glass homogeniser. The homogenate was centrifuged at 39,800 g for 20 min at 4° C., the supernatant discarded and the pellet resuspended by homogenisation in fresh buffer. The homogenate was recentrifuged (39,800 g; 20 min@4° C.) and the final pellet was resuspended in HEPES buffer to give a tissue concentration of 2 mg.ml^-1 (original wet weight). The membranes ([…]) were incubated for 150 min at 21±3° C. in a final volume of 0.5 ml with HEPES buffer containing [^25 I]-CCK8S (0.05 ml; 200 pM NEN 2200 Ci.mmol^-1) and competing compound. Total and non-specific binding of [^125 I]-CCK8S were defined using 0.05 ml of buffer and 0.05 ml of […] L-365,260, respectively. The assay was terminated by rapid filtration through pre-soaked Whatman GF/B 35 filters using a Brandell Cell harvester. The filters were washed (3×3 ml) with ice-cold 5 mM Tris-HCl (pH7.4@4° C.) and bound radioactivity determined by counting (1 min.) in a gamma-counter.

Gastrin = biological target: T2, Gastrin (Rattus norvegicus, UniProt P30553); test: gastrin antagonist activity in an immature rat stomach assay (pentagastrin-stimulated acid secretion, isolated stomach); conditions: cumulative pentagastrin dose-response curves, 60 min after drug; for Kb: read-out: Gastrin pKB (converted)
T2 construct: The stomach was excised and flushed with ca. 1 ml unbuffered physiological saline solution; from tissue; host or cells: isolated whole stomach of immature rats (33-50 g, ca. 21 days old)
T2 sequence (P30553 1-452): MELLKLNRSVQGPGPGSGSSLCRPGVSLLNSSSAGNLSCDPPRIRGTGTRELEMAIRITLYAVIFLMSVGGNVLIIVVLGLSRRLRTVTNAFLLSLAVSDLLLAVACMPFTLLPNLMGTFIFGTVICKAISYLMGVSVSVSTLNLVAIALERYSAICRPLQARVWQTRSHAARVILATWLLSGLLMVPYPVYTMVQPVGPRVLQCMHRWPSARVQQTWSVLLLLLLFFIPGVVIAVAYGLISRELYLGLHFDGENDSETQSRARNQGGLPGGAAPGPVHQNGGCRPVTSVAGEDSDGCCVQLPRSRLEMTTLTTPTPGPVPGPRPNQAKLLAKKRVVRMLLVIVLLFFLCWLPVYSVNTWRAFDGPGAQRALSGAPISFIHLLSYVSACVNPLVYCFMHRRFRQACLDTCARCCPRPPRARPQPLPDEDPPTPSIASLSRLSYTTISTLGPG
Experimental: The compounds of the examples were also tested for gastrin antagonist activity in an immature rat stomach assay. The procedure was follows:
The oesophagus of immature rats (33-50 g, ca. 21 days old) was ligated at the level of the cardiac sphincter and the duodenal sphincter was cannulated. The stomach was excised and flushed with ca. 1 ml unbuffered physiological saline solution. The fundus was punctured and cannulated. A further 4-5 ml of unbuffered solution was flushed through the stomach to ensure the preparation was not leaking. The stomach was lowered into a jacketed organ bath containing 40 ml of buffered solution containing 3×10^-8 M5methylfurmethide, maintained at 37° and gassed vigorously with 95% O2 /5% CO2. The stomach was continuously perfused at a rate of 1 ml min^-1 with unbuffered solution gassed with 100% O2 with the perfusate passing over an internally referenced pH-electrode fixed 12 cm above the stomach.
After 120 min of stabilisation the drugs were added directly to the serosal solution in the organ bath and after a further 60 min cumulative pentagastrin dose-response curves were started. Changes in acid secretion were monitored and the curves analysed according to Black et. al., Br. J. Pharmacol., 1985, 86, 581.

CCKA = biological target: T3, CCKA (Cavia porcellus, UniProt Q63931); test: CCKA binding assay (guinea-pig pancreas membranes); conditions: [125I]-CCK8(S) 200 pM, 0.375 μM PD134,308 present, 150 minutes at 21±3° C.; for Ki: read-out: CCKA pKi (converted)
T3 construct: The pancreatata were homogenised in 40 ml ice-cold HEPES buffer; from tissue; host or cells: pancreas membranes of male Dunkin Hartley guinea-pigs
T3 sequence (Q63931 1-430): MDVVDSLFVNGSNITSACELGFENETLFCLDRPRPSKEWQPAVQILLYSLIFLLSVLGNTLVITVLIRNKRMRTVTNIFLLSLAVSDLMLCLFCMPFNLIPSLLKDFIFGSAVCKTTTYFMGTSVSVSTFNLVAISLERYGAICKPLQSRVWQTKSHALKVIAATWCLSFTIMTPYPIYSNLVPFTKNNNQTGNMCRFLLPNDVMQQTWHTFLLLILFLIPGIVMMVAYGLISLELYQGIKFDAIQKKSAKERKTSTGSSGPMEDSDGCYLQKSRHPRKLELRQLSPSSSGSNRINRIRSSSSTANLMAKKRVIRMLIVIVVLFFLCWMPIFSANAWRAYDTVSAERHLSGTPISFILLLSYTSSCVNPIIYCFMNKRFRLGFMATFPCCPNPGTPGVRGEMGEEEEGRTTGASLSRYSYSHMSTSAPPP
Experimental: The compounds of the examples were also tested in a CCKA binding assay as follows:
The pancreatata were removed from male guinea-pigs (200-300 g; Dunkin Hartley) and placed in ice-cold HEPES buffer (pH 7.2@21 ±3° C.). The pancreatata were homogenised in 40 ml ice-cold HEPES buffer using a polytron (Brinkman, PT10, setting 10) 4×1 second. The homogenate was centrifuged at 39,800 g for 15 min at 4° C. The supernatant was discarded and the pellet re-suspended using a Teflon-in-glass homogeniser in 20 volumes of fresh buffer and re-centrifuged as above. The final pellet was re-suspended using a Teflon-in-glass homogeniser to a tissue concentration of 1 mg.ml^-1 (original wet weight), and filtered through 500 μm pore-size Nytex mesh.
The membranes (400 μl; containing 0.375 μM PD134,308) are incubated for 150 minutes at 21±3° C. in a final volume of 0.5 ml with HEPES buffer containing [^125 I]-CCK8 (S) (50 μl; 200 pM) and competing compound. Total and non-specific binding of [^125 I]-CCK^8 (S) are defined using 50 μl of buffer and 50 μl of 100 nM L-364,718respectively. The assay is terminated by rapid filtration through pre-soaked Whatman GF/B filters using a Brandell Cell Harvester. The filters were washed (3×3 ml) with ice-cold 50 mM Tris HCl (pH 7.4 at 4° C. and bound radioactivity is determined by counting (1 min) in a gamma counter.

| Ki (CCKB) | Kb (Gastrin) | CCKA pKi (CCKA) | Ki (CCKA) | CCKB pKi (CCKB) | Gastrin pKB (Gastrin) | SMILES |
| --- | --- | --- | --- | --- | --- | --- |
| 0.0794 µM | 0.00398 µM | 5.5 | – | – | – | O=C(O)c1cc(NC(=O)[C@H](Cc2ccccc2)NC(=O)c2ccccc2C(=O)NCC23CC4CC(CC(C4)C2)C3)cc(C(=O)O)c1 [Example 1, (1S-(3,5-dicarboxyphenylaminocarbonyl)-2-phenylethylaminocarbonyl)-2-(1-adamantanemethylaminocarbonyl)-benzene] |
| 1.26 µM | 0.0251 µM | – | 1.58 µM | – | – | O=C(O)c1cc(NC(=O)[C@H](Cc2ccc(O)cc2)NC(=O)c2ccccc2C(=O)NCC23CC4CC(CC(C4)C2)C3)cc(C(=O)O)c1 [Example 2, (1S-(3,5-dicarboxyphenylaminocarbonyl)-2-(4-hydroxyphenyl)-ethylaminocarbonyl)-2-(1-adamantanemethyl-aminocarbonyl)-benzene] |
| 0.398 µM | 0.0158 µM | – | 7.94 µM | – | – | O=C(O)c1cc(NC(=O)[C@@H](Cc2ccccc2)NC(=O)c2ccccc2C(=O)NCC23CC4CC(CC(C4)C2)C3)cc(C(=O)O)c1 [Example 3, (1R-(3,5-dicarboxyphenylaminocarbonyl)-2-phenylethylaminocarbonyl)-2-(1-adamantanemethylaminocarbonyl)-benzene] |
| – | – | 5.3 | – | 7.0 | 7.7 | O=C(O)c1cc(NC(=O)[C@H](Cc2ccccc2F)NC(=O)c2ccccc2C(=O)NCC23CC4CC(CC(C4)C2)C3)cc(C(=O)O)c1 [Example 4] |
| – | – | 6.3 | – | 6.3 | 6.1 | O=C(O)c1cc(NC(=O)[C@H](Cc2ccccc2)NC(=O)c2ccccc2C(=O)NCc2ccc3ccccc3c2)cc(C(=O)O)c1 [Example 6, (1R-(3,5-dicarboxyphenylaminocarbonyl)-2-phenylethylaminocarbonyl)-2-(2-naphthalenemethylaminocarbonyl)-benzene] |
| – | – | 5.9 | – | 6.5 | 6.3 | O=C(O)c1cc(NC(=O)[C@H](Cc2ccccc2)NC(=O)c2ccccc2C(=O)NCC2CCCCCC2)cc(C(=O)O)c1 [Example 7, (1R-(3,5-dicarboxyphenylaminocarbonyl)-2-phenylethylaminocarbonyl)-2-(cycloheptanemethylaminocarbonyl)-benzene] |
| 0.794 µM | 0.0398 µM | – | 2 µM | – | – | O=C(O)c1cc(NC(=O)[C@H](Cc2ccccc2)NC(=O)c2ncccc2C(=O)NCC23CC4CC(CC(C4)C2)C3)cc(C(=O)O)c1 [Example 10, 2-(1S-(3,5-dicarboxyphenylamino-carbonyl)-2-phenylethylaminocarbonyl)-3-(1-adamantanemethylamino-carbonyl)pyridine] |
| – | – | 5.2 | – | 6.3 | 6.5 | O=C(O)c1cc(NC(=O)[C@H](Cc2ccccc2)NC(=O)c2cocc2C(=O)NCC23CC4CC(CC(C4)C2)C3)cc(C(=O)O)c1 [Example 12, 3-(1S-(3,5-dicarboxyphenylamino-carbonyl)-2-phenylethylaminocarbonyl)-4-(1-adamantanemethyl-aminocarbonyl)furan] |
| 0.0631 µM | 0.0251 µM | – | 2 µM | – | – | O=C(O)c1cc(NC(=O)[C@H](Cc2ccccc2)NC(=O)c2c[nH]cc2C(=O)NCC23CC4CC(CC(C4)C2)C3)cc(C(=O)O)c1 [Example 13, 3-(1S-(3,5-dicarboxyphenylamino-carbonyl)-2-phenylethylaminocarbonyl)-4-(1-adamantanemethylamino-carbonyl)pyrrole] |
| 0.501 µM | 0.1 µM | – | 3.16 µM | – | – | O=C(O)c1cc(NC(=O)[C@H](Cc2ccccc2)NC(=O)c2ccc([N+](=O)[O-])cc2C(=O)NCC23CC4CC(CC(C4)C2)C3)cc(C(=O)O)c1 [Example 14, 1-(1S-(3,5-dicarboxyphenylamino-carbonyl)-2-phenylethylaminocarbonyl)-2-(1-adamantanemethyl-aminocarbonyl)-4-nitrobenzene] |
